Test results from the NIST ThermoML archive (doi:10.1016/j.jct.2016.08.016).
Numbers after ± are expanded uncertainties.

Conditions: Crystal; visual observation

Normal melting temperature [°C] | SMILES
92.6 ± 1.6 | CC1=C(NCCc2ccccc2)C(=O)c2ccccc2C1=O [3-(phenethylamino)-2-methylnaphthalene-1,4-dione]
91.7 ± 2.6 | CC1=C(NCc2ccccc2)C(=O)c2ccccc2C1=O [2-(benzylamino)-3-methylnaphthalene-1,4-dione]
